According to patent publication US20250064789A1, “KETOAMIDE DERIVATIVES AND PHARMACEUTICAL USES THEREOF” (priority 2022, published 2025):

system: not listed separately; test: in vivo; details: male, Sprague-Dawley, rat, iv, 1 mg/kg

SMILES	MRT inf [h]	Tmax [h]
COC[C@@H](NC(=O)C1CCC(F)(F)CC1)C(=O)N[C@H](Cc1ccccc1)C(=O)C(=O)NCc1nccs1 [Compound 395]	3.55 ± 0.52	0.08
COC[C@@H](NC(=O)CC1CC(F)(F)C1)C(=O)N[C@H](Cc1ccccc1)C(=O)C(=O)NCc1nccs1 [Compound 400]	3.18 ± 0.52	0.08

same assay, conditions: male, Sprague-Dawley, rat, po, 10 mg/kg

SMILES	MRT inf [h]	Tmax [h]	AUC(0-inf) [ng·h/mL]	AUC(0-t) [ng·h/mL]	Cmax [ng/mL]	half-life [h]
COC[C@@H](NC(=O)C1CCC(F)(F)CC1)C(=O)N[C@H](Cc1ccccc1)C(=O)C(=O)NCc1nccs1 [Compound 395]	7.63 ± 0.57	4				
COC[C@@H](NC(=O)CC1CC(F)(F)C1)C(=O)N[C@H](Cc1ccccc1)C(=O)C(=O)NCc1nccs1 [Compound 400]	6.47 ± 0.5	2				
C[C@@H](NC(=O)CC1CC1(F)F)C(=O)N[C@H](Cc1ccccc1)C(=O)C(=O)NCc1cscn1 (stereo partly shown) [Compound 417]	6.55 ± 0.39	3.33 ± 1.15	5070 ± 2290	4890 ± 2320	441 ± 225	5.07 ± 1.78

system: not listed separately; test: In vivo pharmacokinetic properties in rats; details: SD rats, i.v. 1 mg/kg

SMILES	AUCINF—obs [ng·h/mL]	AUClast [ng·h/mL]	CL [mL/min/kg]	Cmax [ng/mL]	T1/2 [h]
COC[C@@H](NC(=O)C1CCC(F)(F)CC1)C(=O)N[C@H](Cc1ccccc1)C(=O)C(=O)NCc1nccs1 [Compound 395]	2829.72 ± 958.55	2574.49 ± 819.96	6.48 ± 2.63	1697.71 ± 237.45	9.49 ± 2.16
COC[C@@H](NC(=O)CC1CC(F)(F)C1)C(=O)N[C@H](Cc1ccccc1)C(=O)C(=O)NCc1nccs1 [Compound 400]	2394.12 ± 644.94	2357.97 ± 638.69	7.30 ± 1.90	1352.62 ± 116.10	5.09 ± 0.57

same assay, conditions: SD rats, p.o. 10 mg/kg

SMILES	AUCINF—obs [ng·h/mL]	AUClast [ng·h/mL]	Cmax [ng/mL]	F % [%]	T1/2 [h]
COC[C@@H](NC(=O)C1CCC(F)(F)CC1)C(=O)N[C@H](Cc1ccccc1)C(=O)C(=O)NCc1nccs1 [Compound 395]	13950.66 ± 782.95	12675.30 ± 1265.92	1006.49 ± 114.61	49.23 ± 4.92	6.64 ± 1.17
COC[C@@H](NC(=O)CC1CC(F)(F)C1)C(=O)N[C@H](Cc1ccccc1)C(=O)C(=O)NCc1nccs1 [Compound 400]	11166.54 ± 364.00	10791.37 ± 123.59	805.87 ± 75.43	45.77 ± 0.52	4.67 ± 1.04

molecular target: hERG potassium ion channels (Homo sapiens (Human), UniProt Q12809); test: hERG potassium current, whole cell patch clamp in HEK-293-hERG cells; details: 0.1 μM
Sequence (Q12809 whole entry, looked up): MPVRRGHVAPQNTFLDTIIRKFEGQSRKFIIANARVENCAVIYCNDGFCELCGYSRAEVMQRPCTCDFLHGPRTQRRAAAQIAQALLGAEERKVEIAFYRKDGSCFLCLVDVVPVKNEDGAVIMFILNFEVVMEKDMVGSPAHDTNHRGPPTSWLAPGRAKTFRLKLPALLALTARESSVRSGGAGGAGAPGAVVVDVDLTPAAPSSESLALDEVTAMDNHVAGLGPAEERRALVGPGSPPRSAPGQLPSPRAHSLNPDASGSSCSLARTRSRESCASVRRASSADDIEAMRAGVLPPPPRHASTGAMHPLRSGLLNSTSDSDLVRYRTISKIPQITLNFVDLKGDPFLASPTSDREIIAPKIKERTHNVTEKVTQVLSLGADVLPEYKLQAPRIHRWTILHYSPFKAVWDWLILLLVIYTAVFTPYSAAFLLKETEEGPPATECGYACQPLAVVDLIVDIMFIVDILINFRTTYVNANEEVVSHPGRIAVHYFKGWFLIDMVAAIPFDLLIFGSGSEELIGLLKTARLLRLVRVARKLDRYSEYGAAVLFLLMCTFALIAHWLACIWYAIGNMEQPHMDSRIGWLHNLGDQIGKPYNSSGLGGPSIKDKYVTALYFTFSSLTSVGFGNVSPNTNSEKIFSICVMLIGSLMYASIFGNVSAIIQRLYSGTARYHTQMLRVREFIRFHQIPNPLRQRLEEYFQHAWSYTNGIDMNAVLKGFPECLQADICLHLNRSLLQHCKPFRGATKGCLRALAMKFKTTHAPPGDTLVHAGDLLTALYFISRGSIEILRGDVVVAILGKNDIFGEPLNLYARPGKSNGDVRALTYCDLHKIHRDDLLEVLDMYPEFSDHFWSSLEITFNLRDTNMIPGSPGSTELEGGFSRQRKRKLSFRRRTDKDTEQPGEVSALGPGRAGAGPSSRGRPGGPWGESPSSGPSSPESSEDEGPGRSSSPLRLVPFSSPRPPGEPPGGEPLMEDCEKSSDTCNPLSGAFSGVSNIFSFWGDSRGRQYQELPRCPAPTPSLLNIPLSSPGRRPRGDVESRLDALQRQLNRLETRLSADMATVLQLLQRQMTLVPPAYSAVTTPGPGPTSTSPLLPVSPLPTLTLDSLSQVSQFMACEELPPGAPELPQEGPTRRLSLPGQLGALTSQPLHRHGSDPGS

SMILES	The average tail current after administration [pA]
COc1cc(N)c(Cl)cc1C(=O)NC1CCN(CCCOc2ccc(F)cc2)CC1OC (stereo not shown) [Cisapride, reference compound]	128.04

system: not listed separately; test: Cytotoxic assay against HUVEC cells (MTT, 72 h); assay type: cell-based, human; details: human
Method: (§1) BEAS-2B cells (normal human bronchial epithelial cells) and HUVEC cells (human umbilical vein endothelial cells) were used to evaluate the cytotoxicity of compounds against human-derived cells. The detailed experimental procedures: BEAS-2B cells or HUVEC cells were seeded into a 96-well plate at a cell density of 2×10^4 cells/well, that is, 100 µL/well, and then incubated overnight at 37° C. in a 5% CO2 incubator. The next day, 100 μL of drug-containing medium was added to each well. The compound was diluted in a 2-fold serial dilution with a top concentration of […], for a total of 6 gradients. Three repeated wells were set for each concentration, and negative controls and blank controls without drugs were included for each experiment. […] All experimental data were analyzed using GraphPad Prism software.

SMILES	CC50 at 72 h [µM]
C[C@@H](NC(=O)CC1CC1(F)F)C(=O)N[C@H](Cc1ccccc1)C(=O)C(=O)NCc1cscn1 (stereo partly shown) [Compound 417]	> 500

system: HUVEC cells (human umbilical vein endothelial cells); test: Cytotoxic assay against HUVEC cells (MTT, 72 h); assay type: cell-based; details: not given
Method: as §1

SMILES	CC50 [µM]
COC[C@@H](NC(=O)C1CCC(F)(F)CC1)C(=O)N[C@H](Cc1ccccc1)C(=O)C(=O)NCc1nccs1 [Compound 395]	129
COC[C@@H](NC(=O)CC1CC(F)(F)C1)C(=O)N[C@H](Cc1ccccc1)C(=O)C(=O)NCc1nccs1 [Compound 400]	> 500

molecular target: human caspase 2 (Homo sapiens (Human), UniProt P42575); test: Human protease biochemical activity assay: Caspase-2 inhibitor screening kit; details: read-out: Caspase-2 IC50
Method: (§2) The biochemical activity of compounds against human proteases was determined using Cathepsin K inhibitor screening kit (K150-100), Cathepsin B inhibitor screening kit (K147-100), Thrombin activity testing kit (K373-100), Caspase-2 inhibitor screening kit (K152-100), and Cathepsin D inhibitor screening kit (K148-100) according to the instructions of the kits (Biovision, USA). All experiments were carried out in triplicate. All experimental data were analyzed using GraphPad Prism software.

Sequence of human caspase 2 (P42575 170-325): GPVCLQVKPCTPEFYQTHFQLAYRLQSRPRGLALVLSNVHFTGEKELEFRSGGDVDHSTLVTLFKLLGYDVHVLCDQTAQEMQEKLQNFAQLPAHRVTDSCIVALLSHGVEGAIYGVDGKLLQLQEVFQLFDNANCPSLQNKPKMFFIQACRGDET
Sequence of human caspase 2 (P42575 348-452): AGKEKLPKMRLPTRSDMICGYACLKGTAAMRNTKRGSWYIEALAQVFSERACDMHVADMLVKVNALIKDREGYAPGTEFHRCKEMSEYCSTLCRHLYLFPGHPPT

SMILES	IC50 [µM]
COC[C@@H](NC(=O)C1CCC(F)(F)CC1)C(=O)N[C@H](Cc1ccccc1)C(=O)C(=O)NCc1nccs1 [Compound 395]	> 100
COC[C@@H](NC(=O)CC1CC(F)(F)C1)C(=O)N[C@H](Cc1ccccc1)C(=O)C(=O)NCc1nccs1 [Compound 400]	> 100
C[C@@H](NC(=O)CC1CC1(F)F)C(=O)N[C@H](Cc1ccccc1)C(=O)C(=O)NCc1cscn1 (stereo partly shown) [Compound 417]	> 100

system: not listed separately; test: Metabolic stability using human liver microsomes; assay type: in vitro ADME; details: NADPH, 37° C.

SMILES	Human liver microsomes T1/2 [h]
COC[C@@H](NC(=O)C1CCC(F)(F)CC1)C(=O)N[C@H](Cc1ccccc1)C(=O)C(=O)NCc1nccs1 [Compound 395]	0.6498
COC[C@@H](NC(=O)CC1CC(F)(F)C1)C(=O)N[C@H](Cc1ccccc1)C(=O)C(=O)NCc1nccs1 [Compound 400]	0.5067

same assay, conditions: pH 7.4, NADPH, 37° C., read-out: Human liver microsomes T1/2

SMILES	half-life at 1 µM [h]
C[C@@H](NC(=O)CC1CC1(F)F)C(=O)N[C@H](Cc1ccccc1)C(=O)C(=O)NCc1cscn1 (stereo partly shown) [Compound 417]	0.534

molecular target: human cathepsin B (Homo sapiens (Human), UniProt P07858); test: Human protease biochemical activity assay: Cathepsin B inhibitor screening kit; details: not given
Method: as §2

SMILES	IC50 [µM]
COC[C@@H](NC(=O)C1CCC(F)(F)CC1)C(=O)N[C@H](Cc1ccccc1)C(=O)C(=O)NCc1nccs1 [Compound 395]	> 100
COC[C@@H](NC(=O)CC1CC(F)(F)C1)C(=O)N[C@H](Cc1ccccc1)C(=O)C(=O)NCc1nccs1 [Compound 400]	> 100
C[C@@H](NC(=O)CC1CC1(F)F)C(=O)N[C@H](Cc1ccccc1)C(=O)C(=O)NCc1cscn1 (stereo partly shown) [Compound 417]	> 100

molecular target: human cathepsin D (Homo sapiens (Human), UniProt P07339); test: Human protease biochemical activity assay: Cathepsin D inhibitor screening kit; details: not given
Method: as §2

Sequence of human cathepsin D (P07339 65-412): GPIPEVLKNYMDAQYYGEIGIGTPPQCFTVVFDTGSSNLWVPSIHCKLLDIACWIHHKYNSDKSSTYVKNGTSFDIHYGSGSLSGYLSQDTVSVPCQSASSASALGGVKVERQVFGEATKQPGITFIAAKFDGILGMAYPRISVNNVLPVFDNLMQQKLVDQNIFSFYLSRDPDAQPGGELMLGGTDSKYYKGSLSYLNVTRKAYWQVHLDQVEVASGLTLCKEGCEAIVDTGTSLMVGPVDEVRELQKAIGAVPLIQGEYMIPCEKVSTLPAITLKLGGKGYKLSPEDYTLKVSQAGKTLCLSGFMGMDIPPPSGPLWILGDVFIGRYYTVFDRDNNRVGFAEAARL

SMILES	IC50 [µM]
COC[C@@H](NC(=O)C1CCC(F)(F)CC1)C(=O)N[C@H](Cc1ccccc1)C(=O)C(=O)NCc1nccs1 [Compound 395]	> 100
COC[C@@H](NC(=O)CC1CC(F)(F)C1)C(=O)N[C@H](Cc1ccccc1)C(=O)C(=O)NCc1nccs1 [Compound 400]	> 100
C[C@@H](NC(=O)CC1CC1(F)F)C(=O)N[C@H](Cc1ccccc1)C(=O)C(=O)NCc1cscn1 (stereo partly shown) [Compound 417]	> 100

system: not given; test: not given; details: male, Sprague-Dawley, rat, in vivo, iv, 1 mg/kg

SMILES	Vssobs [L/kg]
COC[C@@H](NC(=O)C1CCC(F)(F)CC1)C(=O)N[C@H](Cc1ccccc1)C(=O)C(=O)NCc1nccs1 [Compound 395]	5.25 ± 2.13
COC[C@@H](NC(=O)CC1CC(F)(F)C1)C(=O)N[C@H](Cc1ccccc1)C(=O)C(=O)NCc1nccs1 [Compound 400]	3.28 ± 1.17

molecular target: recombinant SARS-CoV-2 M^pro (Severe acute respiratory syndrome coronavirus 2 (2019-nCoV) (SARS-CoV-2), UniProt P0DTD1); test: Inhibition of SARS-CoV-2 M^pro enzyme activity (fluorescent substrate assay); assay type: biochemical; details: inhibition of SARS-CoV-2 M^pro enzyme activity; values in nM; read-out: IC50

SMILES	IC50 [nM]
COC[C@@H](NC(=O)C1CCC(F)(F)CC1)C(=O)N[C@H](Cc1ccccc1)C(=O)C(=O)NCc1nccs1 [Compound 395]	18.4 ± 1.3
COC[C@@H](NC(=O)CC1CC(F)(F)C1)C(=O)N[C@H](Cc1ccccc1)C(=O)C(=O)NCc1nccs1 [Compound 400]	10.2 ± 0.1
C[C@@H](NC(=O)CC1CC1(F)F)C(=O)N[C@H](Cc1ccccc1)C(=O)C(=O)NCc1cscn1 (stereo partly shown) [Compound 417]	22.1 ± 3

molecular target: human thrombin (Homo sapiens (Human), UniProt P00734); test: Human protease biochemical activity assay: Thrombin activity testing kit; details: read-out: Thrombin IC50
Method: as §2

SMILES	IC50 [µM]
COC[C@@H](NC(=O)C1CCC(F)(F)CC1)C(=O)N[C@H](Cc1ccccc1)C(=O)C(=O)NCc1nccs1 [Compound 395]	> 100
COC[C@@H](NC(=O)CC1CC(F)(F)C1)C(=O)N[C@H](Cc1ccccc1)C(=O)C(=O)NCc1nccs1 [Compound 400]	> 100
C[C@@H](NC(=O)CC1CC1(F)F)C(=O)N[C@H](Cc1ccccc1)C(=O)C(=O)NCc1cscn1 (stereo partly shown) [Compound 417]	> 100

molecular target: human cathepsin K (Homo sapiens (Human), UniProt P43235); test: Human protease biochemical activity assay: Cathepsin K inhibitor screening kit; details: read-out: Cathepsin K IC50
Method: as §2

Sequence of human cathepsin K (P43235 115-329): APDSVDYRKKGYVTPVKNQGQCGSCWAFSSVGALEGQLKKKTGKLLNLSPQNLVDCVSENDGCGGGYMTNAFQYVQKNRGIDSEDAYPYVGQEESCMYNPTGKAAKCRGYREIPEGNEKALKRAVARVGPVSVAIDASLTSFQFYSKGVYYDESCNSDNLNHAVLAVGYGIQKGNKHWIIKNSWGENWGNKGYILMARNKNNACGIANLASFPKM

SMILES	IC50 [µM]
COC[C@@H](NC(=O)C1CCC(F)(F)CC1)C(=O)N[C@H](Cc1ccccc1)C(=O)C(=O)NCc1nccs1 [Compound 395]	> 100
COC[C@@H](NC(=O)CC1CC(F)(F)C1)C(=O)N[C@H](Cc1ccccc1)C(=O)C(=O)NCc1nccs1 [Compound 400]	> 100
C[C@@H](NC(=O)CC1CC1(F)F)C(=O)N[C@H](Cc1ccccc1)C(=O)C(=O)NCc1cscn1 (stereo partly shown) [Compound 417]	> 100

system: not listed separately; test: Cytotoxic assay against human BEAS-2B cells (MTT, 72 h); assay type: cell-based; details: human
Method: as §1

SMILES	CC50 at 72 h [µM]
C[C@@H](NC(=O)CC1CC1(F)F)C(=O)N[C@H](Cc1ccccc1)C(=O)C(=O)NCc1cscn1 (stereo partly shown) [Compound 417]	> 500

system: BEAS-2B cells (normal human bronchial epithelial cells); test: as above; assay type: cell-based; details: not given
Method: as §1

SMILES	CC50 [µM]
COC[C@@H](NC(=O)C1CCC(F)(F)CC1)C(=O)N[C@H](Cc1ccccc1)C(=O)C(=O)NCc1nccs1 [Compound 395]	159
COC[C@@H](NC(=O)CC1CC(F)(F)C1)C(=O)N[C@H](Cc1ccccc1)C(=O)C(=O)NCc1nccs1 [Compound 400]	> 500

system: not listed separately; test: Cytotoxic assay against Vero E6 cells (MTT, 72 h); assay type: cell-based; details: African green monkey
Method: (§3) The cytotoxicity assessment of compounds was performed against Vero E6 cells. The specific experimental procedures: Vero E6 cells were seeded into a 96-well plate at a cell density of 2×10^4 cells/well, with 100 μL/well, and then incubated overnight at 37° C. in a 5% CO2 incubator. The next day, 100 μL of drug-containing medium was added to each well. The compound was diluted in a 2-fold serial dilution with a top concentration of […], for a total of 6 gradients. Three repeated wells were set for each concentration, and negative controls and blank controls without drugs were included for each experiment. […] All experimental data were analyzed using GraphPad Prism software.

SMILES	CC50 at 72 h [µM]
C[C@@H](NC(=O)CC1CC1(F)F)C(=O)N[C@H](Cc1ccccc1)C(=O)C(=O)NCc1cscn1 (stereo partly shown) [Compound 417]	> 500

system: Vero E6 cells; test: Cytotoxic assay against Vero E6 cells (MTT, 72 h); assay type: cell-based; details: not given
Method: as §3

SMILES	CC50 [µM]
COC[C@@H](NC(=O)C1CCC(F)(F)CC1)C(=O)N[C@H](Cc1ccccc1)C(=O)C(=O)NCc1nccs1 [Compound 395]	132
COC[C@@H](NC(=O)CC1CC(F)(F)C1)C(=O)N[C@H](Cc1ccccc1)C(=O)C(=O)NCc1nccs1 [Compound 400]	> 500
